Test results published in the supplement of paper PMC10307832.

What was measured:
Assay in all cases: relative viability (nuclei count vs DMSO), 5 days (fraction); higher = more cells survive
Masitinib + Foretinib = compound: Cc1ccc(NC(=O)c2ccc(CN3CCN(C)CC3)cc2)cc1Nc1nc(-c2cccnc2)cs1 [Masitinib] + COc1cc2c(Oc3ccc(NC(=O)C4(C(=O)Nc5ccc(F)cc5)CC4)cc3F)ccnc2cc1OCCCN1CCOCC1 [Foretinib] (partner 0.25 µM)
Method in brief: (§1)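 Medians of duplicate plates are given as relative viability. That measure is the nuclei count in treated wells divided by the count in vehicle wells. Counts were taken on 4× images of lung cancer cell lines in 1536-well plates, 5 days after pin-tool dosing the day after seeding with one drug alone or a fixed anchor-drug dose plus five library-drug doses (not always all listed) in √10 steps.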

Masitinib + Phenformin = compound: Cc1ccc(NC(=O)c2ccc(CN3CCN(C)CC3)cc2)cc1Nc1nc(-c2cccnc2)cs1 [Masitinib] + N=C(N)NC(=N)NCCc1ccccc1 [Phenformin] (partner 250 µM)
Method in brief: as §1

[1] = compound: CC1=CC(=CC=C1)NC2=NC(=CS2)C3=CC=NC=C3 + Cc1nc(Nc2ncc(C(=O)Nc3c(C)cccc3Cl)s2)cc(N2CCN(CCO)CC2)n1 [Dasatinib] (partner 0.075 µM)
Method in brief: as §1

[2] = compound: CC1=CC(=CC=C1)NC2=NC(=CS2)C3=CC=NC=C3 + Cc1nc(NC(=O)N2CCC[C@H]2C(N)=O)sc1-c1ccnc(C(C)(C)C(F)(F)F)c1 [Alpelisib] (partner 2 µM)
Method in brief: as §1

Cell Line | relative viability (Masitinib + Foretinib; first compound 0.01 µM) | relative viability (Masitinib + Foretinib; first compound 0.03162 µM) | relative viability (Masitinib + Foretinib; first compound 0.1 µM) | relative viability (Masitinib + Foretinib; first compound 0.3162 µM) | relative viability (Masitinib + Foretinib; first compound 1 µM) | relative viability (Masitinib + Phenformin; first compound 0.01 µM) | relative viability (Masitinib + Phenformin; first compound 0.03162 µM) | relative viability (Masitinib + Phenformin; first compound 0.1 µM) | relative viability (Masitinib + Phenformin; first compound 0.3162 µM) | relative viability (Masitinib + Phenformin; first compound 1 µM) | relative viability ([1]; first compound 0.08 µM) | relative viability ([1]; first compound 0.253 µM) | relative viability ([1]; first compound 0.8 µM) | relative viability ([1]; first compound 2.53 µM) | relative viability ([1]; first compound 8 µM) | relative viability ([2]; first compound 0.08 µM) | relative viability ([2]; first compound 0.253 µM) | relative viability ([2]; first compound 0.8 µM) | relative viability ([2]; first compound 2.53 µM) | relative viability ([2]; first compound 8 µM)
NCI-H322M | 0.973 | 0.896 | 1.02 | 0.935 | 0.948 | 0.789 | 0.799 | 0.741 | 0.75 | 0.715 | 0.244 | 0.222 | 0.257 | 0.264 | 0.259 | 0.747 | 0.868 | 0.771 | 0.903 | 0.853
NCI-H358 | 0.769 | 0.81 | 0.784 | 0.625 | 0.591 | 0.316 | 0.346 | 0.359 | 0.363 | 0.327 | 0.214 | 0.173 | 0.182 | 0.185 | 0.263 | 0.662 | 0.772 | 0.645 | 0.929 | 0.791
NCI-H441 | 0.909 | 0.976 | 1.12 | 1.48 | 0.691 | 0.654 | 1.05 | 0.837 | 0.94 | 0.843 | 0.584 | 0.482 | 0.834 | 0.585 | 0.585 | 0.659 | 0.75 | 0.73 | 0.577 | 0.811
NCI-H460 | 1.02 | 1.08 | 1.06 | 0.864 | 0.977 | 0.482 | 0.586 | 0.508 | 0.457 | 0.503 | 0.44 | 0.306 | 0.554 | 0.381 | 0.343 | 0.331 | 0.368 | 0.375 | 0.37 | 0.307
NCI-H520 | 0.899 | 0.937 | 0.987 | 0.695 | 0.762 | 0.633 | 0.648 | 0.664 | 0.584 | 0.457 | 0.225 | 0.239 | 0.25 | 0.209 | 0.243 | 0.741 | 0.855 | 0.726 | 1.09 | 1.02
NCI-H596 | 0.859 | 0.9 | 0.947 | 0.869 | 0.891 | 0.836 | 0.769 | 0.824 | 0.831 | 0.691 | 0.501 | 0.507 | 0.584 | 0.524 | 0.435 | 0.421 | 0.402 | 0.35 | 0.412 | 0.401
NCI-H647 | 1.34 | 1.19 | 1.46 | 1.04 | 1.19 | 0.549 | 0.521 | 0.526 | 0.57 | 0.584 | 0.17 | 0.172 | 0.195 | 0.148 | 0.196 | 1.05 | 0.935 | 1.11 | 1.08 | 0.751
NCI-H650 | 0.978 | 0.966 | 1.14 | 0.977 | 1.01 | 0.508 | 0.428 | 0.514 | 0.303 | 0.425 | 0.366 | 0.413 | 0.447 | 0.376 | 0.475 | 0.929 | 1.14 | 1.16 |  | 1.11
NCI-H661 | 0.945 | 1.05 | 1.04 | 0.95 | 0.965 | 0.267 | 0.286 | 0.254 | 0.26 | 0.267 | 0.686 | 0.862 | 0.892 | 0.774 | 0.808 | 0.469 | 0.462 | 0.971 | 0.724 | 1.01
NCI-H727 | 0.673 | 1.02 | 1 | 0.891 | 0.85 | 0.641 | 0.636 | 0.5 | 0.616 | 0.44 |  | 0.425 | 0.517 | 0.383 | 0.398 | 0.44 | 0.497 | 0.53 | 0.508 | 0.469
NCI-H838 | 0.926 | 0.837 | 1.18 | 0.813 | 1.05 | 0.45 | 0.498 | 0.521 | 0.508 | 0.569 | 0.233 | 0.248 | 0.244 | 0.293 | 0.267 | 0.91 | 0.914 | 0.868 | 0.863 | 0.743
NCI-H1355 | 0.914 | 0.797 | 1.04 | 0.758 | 0.968 | 0.462 | 0.384 | 0.478 | 0.379 | 0.406 | 0.399 | 0.463 | 0.341 | 0.386 | 0.375 | 0.719 | 0.512 | 0.483 | 0.51 | 0.587
NCI-H1395 | 0.969 | 1 | 1.06 | 0.754 | 0.915 | 0.42 | 0.442 | 0.473 | 0.47 | 0.424 | 0.364 | 0.372 | 0.402 | 0.397 | 0.404 | 0.838 | 0.909 | 1.23 | 1.01 | 0.992
NCI-H1437 | 1.26 | 1.26 | 1.3 | 1.13 | 1.27 | 0.249 | 0.297 | 0.25 | 0.294 | 0.329 | 0.497 | 0.438 | 0.586 | 0.392 | 0.649 | 1.03 | 0.968 | 0.885 | 0.922 | 0.763
NCI-H1563 | 0.989 | 0.932 | 0.87 | 0.877 | 0.895 | 0.631 | 0.701 | 0.689 | 0.684 | 0.643 | 0.48 | 0.41 | 0.498 | 0.404 | 0.434 | 0.881 | 0.94 | 0.968 | 0.98 | 0.828
NCI-H1651 | 0.688 | 0.755 | 0.862 | 0.789 | 0.94 | 0.341 | 0.29 | 0.337 | 0.375 | 0.31 | 0.26 | 0.377 | 0.553 | 0.385 | 0.415 | 0.973 | 0.992 | 0.967 | 0.944 | 0.959
